{"source": "patent US20010046994A1", "about": "“Hexahydrotriazine compounds and insecticides” (priority 1989, published 2001)", "key": {"[1]": {"test_system": "green rice leafhopper which had acquired resistance to chemicals", "assay": "Rice seedling dip test, mortality of resistant green rice leafhopper larvae (Test Example 1)", "assay_type": "in vivo", "details": "Nephotettix cincticeps, read-out: Mortality (%), 500 ppm", "text": "(§1) Five rice seedlings having a height of about 7 cm were dipped, for 10 seconds, into aqueous dilutions of wettable powder each containing a predetermined concentration of each sample compound, prepared in accordance with the procedure as described in Formulation Example 1. After air drying, the roots of the five rice seedlings were wrapped with sanitary cotton dampened with water, and placed in a glass cylinder having a diameter of 3 cm and a height of 20 cm. Ten second instar larvae of a green rice leafhopper which had acquired resistance to chemicals were released into each glass cylinder. The cylinder was allowed to stand in a room maintained at 26° C. The mortality of the larvae was examined 48 hours after treatment."}, "[2]": {"test_system": "brown rice planthopper which had acquired resistance to chemicals", "assay": "Rice seedling dip test, mortality of resistant brown rice planthopper larvae (Test Example 2)", "assay_type": "in vivo", "details": "read-out: Mortality (%), 500 ppm", "text": "as §1, with “brown” for “green”, “planthopper” for “leafhopper”"}, "[3]": {"details": "500 ppm wettable powder dilution, rice seedlings dipped 10 seconds, second instar larvae, 48 hours after treatment, 26° C."}}, "note": "Like-named read-outs stand apart in the source and are kept apart here.", "data": [{"compound": "Cc1cc(OP(C)(C)=S)ccc1[N+](=O)[O-]", "note": "[Comparative Compound, reference compound]", "values": [{"measurement": "mortality at 500 ppm", "setting": "[1]; 48 h", "value": 70, "unit": "%"}, {"measurement": "mortality at 500 ppm", "setting": "[2]; 48 h", "value": 65, "unit": "%"}]}, {"compound": "CCN1CNC(=N[N+](=O)[O-])N(Cc2ccc(Cl)nc2)C1", "note": "[Compound No. 2, 1-(2-chloro-5-pyridylmethyl)-5-ethyl-2-nitroiminohexahydro-1,3,5-triazine]", "values": [{"measurement": "mortality at 500 ppm", "setting": "[1]; [3]", "value": 100, "unit": "%"}, {"measurement": "mortality at 500 ppm", "setting": "[2]; [3]", "value": 100, "unit": "%"}]}, {"compound": "CN1CNC(=N[N+](=O)[O-])N(Cc2ccc(Cl)nc2)C1", "note": "[compound 1, 1-(2-chloro-5-pyridylmethyl)-5-methyl-2-nitroiminohexahydro-1,3,5-triazine]", "values": [{"measurement": "mortality at 500 ppm", "setting": "[1]; [3]", "value": 100, "unit": "%"}, {"measurement": "mortality at 500 ppm", "setting": "[2]; [3]", "value": 100, "unit": "%"}]}, {"compound": "CN1CN(C)C(=N[N+](=O)[O-])N(Cc2ccc(Cl)nc2)C1", "note": "[compound 5, 1-(2-chloro-5-pyridylmethyl)-3,5-dimethyl-2-nitroiminohexahydro-1,3,5-triazine]", "values": [{"measurement": "mortality at 500 ppm", "setting": "[1]; [3]", "value": 100, "unit": "%"}, {"measurement": "mortality at 500 ppm", "setting": "[2]; [3]", "value": 100, "unit": "%"}]}, {"compound": "CN1CN(C)C(=N[N+](=O)[O-])N(Cc2cnc(Cl)s2)C1", "note": "[compound 6, 1-(2-chloro-5-thiazolylmethyl)-3,5-dimethyl-2-nitroiminohexahydro-1,3,5-triazine]", "values": [{"measurement": "mortality at 500 ppm", "setting": "[1]; [3]", "value": 100, "unit": "%"}, {"measurement": "mortality at 500 ppm", "setting": "[2]; [3]", "value": 100, "unit": "%"}]}]}
